Several values for one entry are separate records, joined by “and”; a condition that tells them apart may be missing. Equal values may be shown once. Toxic doses and inconclusive results are not listed. Cut-off read from the data, not from the text of the source: active = T/C of 150% or more; inactive = T/C below 125%.
Test system: L1210 leukemia ip in BDF1 mice, survival T/C
Experiment: NCI In Vivo Anticancer Drug Screen. Data for tumor model L1210 Leukemia (intraperitoneal) in B6D2F1 (BDF1) mice
Details: endpoint: mean survival time, higher = longer survival
How it was run: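 Tumor was transplanted into mice, which were then dosed with test compound or vehicle alone. Survival was recorded for each group, and the treated figure was expressed relative to the control figure.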

[1] = dose: 100.0 mg/kg/injection, schedule: Q04DX003 (ip), vehicle: Klucel (hydroxypropylcellulose) (HPC)
[2] = dose: 200.0 mg/kg/injection, schedule: Q04DX003 (ip), vehicle: Klucel (hydroxypropylcellulose) (HPC)
[3] = dose: 400.0 mg/kg/injection, schedule: Q04DX003 (ip), vehicle: Klucel (hydroxypropylcellulose) (HPC)
[4] = dose: 100.0 mg/kg/injection, schedule: Q04DX003 (ip), vehicle: saline with Tween-80
[5] = dose: 100.0 mg/kg/injection, schedule: Q04DX002 (ip), vehicle: saline

Measured: T/C

Cc1cc(=O)oc2c(CN3CCCCC3)c(O)ccc12
inactive: dose: 5.0 mg/kg/injection, schedule: Q01DX001 (ip), vehicle: carboxymethylcellulose (CMC) 93 % of control | dose: 10.0 mg/kg/injection, schedule: Q01DX001 (ip), vehicle: carboxymethylcellulose (CMC) 90 % of control | dose: 20.0 mg/kg/injection, schedule: Q01DX001 (ip), vehicle: carboxymethylcellulose (CMC) 104 % of control

COc1ccc(C(OC2OC(n3cnc4c(=S)nc(N)[nH]c43)CC2OC(C)=O)(c2ccccc2)c2ccc(OC)cc2)cc1 (configuration not stated)
inactive: dose: 100.0 mg/kg/injection, schedule: Q01DX009 (ip), vehicle: Klucel (hydroxypropylcellulose) (HPC) 97 % of control | [1] 101 % of control | dose: 200.0 mg/kg/injection, schedule: Q01DX009 (ip), vehicle: Klucel (hydroxypropylcellulose) (HPC) 97 % of control | [2] 97 % of control | dose: 400.0 mg/kg/injection, schedule: Q01DX009 (ip), vehicle: Klucel (hydroxypropylcellulose) (HPC) 95 % of control | [3] 97 % of control

CC1(C)C2CC1C(O)(C(=O)O)C2 (configuration not stated)
inactive: dose: 75.0 mg/kg/injection, schedule: Q01DX001 (ip), vehicle: acetone 94 % of control | dose: 150.0 mg/kg/injection, schedule: Q01DX001 (ip), vehicle: acetone 97 % of control | dose: 300.0 mg/kg/injection, schedule: Q01DX001 (ip), vehicle: acetone 96 % of control

CCN(CC)CCN(C)C(=O)C(c1ccccc1)c1ccccc1
inactive: dose: 100.0 mg/kg/injection, schedule: Q04DX003 (ip), vehicle: saline 98 % of control | dose: 200.0 mg/kg/injection, schedule: Q04DX003 (ip), vehicle: saline 93 % of control

CC1(NCCOC(=O)c2ccc(N)cc2)CCCCC1
inactive: dose: 75.0 mg/kg/injection, schedule: Q01DX001 (ip), vehicle: saline 100 % of control | dose: 150.0 mg/kg/injection, schedule: Q01DX001 (ip), vehicle: saline 100 % of control

Clc1ccc2nc(CBr)cnc2c1
inactive: dose: 3.13 mg/kg/injection, schedule: Q01DX009 (ip), vehicle: Klucel (hydroxypropylcellulose) (HPC) 97 % of control | dose: 6.25 mg/kg/injection, schedule: Q01DX009 (ip), vehicle: Klucel (hydroxypropylcellulose) (HPC) 95 % of control and 102 % of control | dose: 12.5 mg/kg/injection, schedule: Q01DX009 (ip), vehicle: Klucel (hydroxypropylcellulose) (HPC) 100 % of control and 120 % of control and 87 % of control | dose: 25.0 mg/kg/injection, schedule: Q01DX009 (ip), vehicle: saline with Tween-80 100 % of control | dose: 25.0 mg/kg/injection, schedule: Q04DX003 (ip), vehicle: Klucel (hydroxypropylcellulose) (HPC) 95 % of control | dose: 50.0 mg/kg/injection, schedule: Q01DX009 (ip), vehicle: saline with Tween-80 95 % of control | dose: 50.0 mg/kg/injection, schedule: Q04DX003 (ip), vehicle: Klucel (hydroxypropylcellulose) (HPC) 96 % of control | [1] 93 % of control | [4] 90 % of control

COc1ccc(Cl)cc1NC(=O)OCC(Cl)(Cl)Cl
inactive: dose: 100.0 mg/kg/injection, schedule: Q01DX001 (ip), vehicle: saline with Tween-80 95 % of control | dose: 100.0 mg/kg/injection, schedule: Q01DX009 (ip), vehicle: saline with Tween-80 100 % of control and 102 % of control | dose: 100.0 mg/kg/injection, schedule: Q04DX002 (ip), vehicle: saline with Tween-80 93 % of control and 91 % of control | [4] 103 % of control | dose: 200.0 mg/kg/injection, schedule: Q01DX001 (ip), vehicle: saline with Tween-80 94 % of control | dose: 200.0 mg/kg/injection, schedule: Q01DX009 (ip), vehicle: saline with Tween-80 96 % of control and 115 % of control | dose: 200.0 mg/kg/injection, schedule: Q04DX002 (ip), vehicle: saline with Tween-80 94 % of control and 101 % of control | dose: 200.0 mg/kg/injection, schedule: Q04DX003 (ip), vehicle: saline with Tween-80 94 % of control | dose: 400.0 mg/kg/injection, schedule: Q01DX001 (ip), vehicle: saline with Tween-80 94 % of control | dose: 400.0 mg/kg/injection, schedule: Q01DX009 (ip), vehicle: saline with Tween-80 100 % of control and 91 % of control | dose: 400.0 mg/kg/injection, schedule: Q04DX002 (ip), vehicle: saline with Tween-80 97 % of control and 108 % of control | dose: 400.0 mg/kg/injection, schedule: Q04DX003 (ip), vehicle: saline with Tween-80 97 % of control

S=C(c1ccccc1)N(c1ccccc1)c1ccc2ccccc2c1
inactive: [1] 98 % of control | [2] 95 % of control | [3] 94 % of control

COC1OC2COc3ccccc3OC2C2C1N2C(N)=S (configuration not stated)
inactive: [5] 96 % of control | dose: 200.0 mg/kg/injection, schedule: Q04DX002 (ip), vehicle: saline 100 % of control | dose: 400.0 mg/kg/injection, schedule: Q04DX002 (ip), vehicle: saline 100 % of control

Cn1c2ccccc2[n+]2c(N)scc12
inactive: dose: 12.5 mg/kg/injection, schedule: Q04DX002 (ip), vehicle: saline 101 % of control | dose: 25.0 mg/kg/injection, schedule: Q04DX002 (ip), vehicle: saline 115 % of control | dose: 50.0 mg/kg/injection, schedule: Q04DX002 (ip), vehicle: saline 96 % of control and 91 % of control | [5] 102 % of control

NC(Cn1cc(N(CCCl)CCCl)c(=O)[nH]c1=O)C(=O)O (configuration not stated)
inactive: dose: 2.5 mg/kg/injection, schedule: Q01DX009 (ip), vehicle: water 114 % of control | dose: 4.0 mg/kg/injection, schedule: Q01DX009 (ip), vehicle: saline 108 % of control | dose: 5.0 mg/kg/injection, schedule: Q01DX009 (ip), vehicle: water 122 % of control | dose: 6.0 mg/kg/injection, schedule: Q01DX009 (ip), vehicle: saline 113 % of control | dose: 8.0 mg/kg/injection, schedule: Q01DX009 (ip), vehicle: saline 103 % of control | dose: 9.0 mg/kg/injection, schedule: Q01DX009 (ip), vehicle: saline 111 % of control | dose: 14.0 mg/kg/injection, schedule: Q01DX009 (ip), vehicle: saline 120 % of control | dose: 16.0 mg/kg/injection, schedule: Q01DX009 (ip), vehicle: saline 118 % of control | dose: 19.0 mg/kg/injection, schedule: Q01DX001 (ip), vehicle: saline 97 % of control | dose: 20.0 mg/kg/injection, schedule: Q01DX001 (ip), vehicle: saline 121 % of control | dose: 30.0 mg/kg/injection, schedule: Q01DX001 (ip), vehicle: saline 115 % of control | dose: 33.0 mg/kg/injection, schedule: Q01DX009 (ip), vehicle: saline 98 % of control | dose: 37.5 mg/kg/injection, schedule: Q01DX001 (ip), vehicle: saline 114 % of control | dose: 45.0 mg/kg/injection, schedule: Q01DX009 (ip), vehicle: saline 101 % of control | dose: 75.0 mg/kg/injection, schedule: Q01DX009 (ip), vehicle: saline 103 % of control
